Source: patent US4238500A, “Cyclic double hemiacetals of enediol compounds and compositions and methods for preparing and using same” (National Foundation for Cancer Research, priority 1979, dated 1980)

Legend:
viral disease = settings: cited from earlier work
guinea pig ileum = test: Effects on pain receptors: twitch height of coaxially stimulated guinea pig ileum; settings: Cavia porcellus, read-out: ED50 (50% reduction in twitch height)
[1] = tested on: edema of the rat paw produced by carrageenan; test: Carrageenan-induced edema of the rat paw
Method: In other experiments, edema of the rat paw was produced by intradermal injection of carrageenan (0.1 ml of 1% solution in saline).

[2] = tested on: capillary permeability produced by serotonin or histamine; test: Increased capillary permeability by intradermal serotonin or histamine (trypan blue) in rats; type: in vivo; settings: 100 mg/kg i.p. 30 minutes before, serotonin 0.05 μg or histamine 1 μg intradermal
Method: In one series of tests, rats were treated i.v. with trypan blue and then the increased capillary permeability produced by intradermal injection of serotonin (0.05 μg) or histamine (1 μg) was measured.
No effect of methylglyoxal-ascorbic acid compound or L-ascorbic acid could be found in this system.

[3] = tested on: acute myelocytic leukemia; settings: 13 patients with acute myelocytic leukemia; all then-current therapy 13%; cited from earlier work
glyoxalase enzyme system = settings: converted by glyoxalase to D-lactic acid in presence of reduced glutathione; cited from earlier work
[4] = 199 mg/kg i.p. versus indomethacin 3 mg/kg per os

Compound: O=CC(=O)C1CCCCC1 [cyclohexylglyoxal]
- antiviral activity (viral disease): have antiviral activity

Compound: O=C1O[C@H]([C@@H](O)CO)C(O)=C1O [L-ascorbic acid]
- IC50 (guinea pig ileum): 32 mM
- anti-inflammatory activity (rat paw edema) ([1]; 199 mg/kg i.p. 60 minutes prior to carrageenan): somewhat anti-inflammatory
- activity compared with indomethacin [1, 4]: far less active than indomethacin
- ratio of effectiveness (indomethacin versus compound) [1, 4]: approximately 200
- effect on increased capillary permeability [2]: No effect

Compound: O=CC(=O)Cc1ccccc1 [benzylglyoxal]
- antiviral activity (viral disease): have antiviral activity

Compound: CC(C=NNC(=N)N)=NNC(=N)N [methylglyoxal bis(guanylhydrazone)]
- complete remission frequency [3]: 69%

Compound: CC(=O)C=O [methylglyoxal]
- IC50 (guinea pig ileum): 8 mM
- lability in vivo (glyoxalase enzyme system): extremely labile in vivo
